Reference: the supplement of paper PMC11451515

Legend:
Conditions in all cases: 48 h
[1] = system: SEM cells; test: cell viability relative to DMSO control; higher = less cytotoxic
Outline: (§1)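 Viability is a per-plate percentage relative to DMSO wells, with cell-free wells as background. CellTiter-Glo One luminescence was read after 48 h at 37°C on 1536-well plates (5 μl) of NOMO1 or SEM (500 cells/well) or P12-Ichikawa (1000 cells/well) leukemia cells. The cells had been adapted for at least four passages in each medium and pin-dosed with library compounds in DMSO from 47 μM to 0.79 nM in 11 threefold steps.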

[2] = system: P12-Ichikawa; test: as above
Outline: as §1

[3] = system: NOMO1; test: as above
Outline: as §1

[4] = system: P12-Ichikawa; test: AUC of viability dose-response curve (% viability x log10 dose units); higher = less sensitive
Outline: (§2)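 Leukemia cells adapted to each medium were seeded in 1536-well plates (500 or 1000 cells/well). They were dosed with library compounds in DMSO at 11 threefold doses, 47 μM to 0.79 nM, for 48 h at 37°C. CellTiter-Glo One luminescence was normalised per plate to DMSO and cell-free wells. Area under the curve was integrated by trapezoidal rule over log10 doses on a four-parameter log-logistic fit; curves exceeding full viability were scaled and curves failing quality control removed.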

[5] = system: NOMO1; test: as above
Outline: as §2

COc1ccc([S+](=O)([O-])Nc2cccnc2Nc2ccc(O)cc2)cc1
cell viability [%]
Conditions	[1]	[2]	[3]
HPLM + 10% dialyzed FBS, 0.000781 µM	124	124	–
HPLM + 10% dialyzed FBS, 0.00234 µM	127	118	–
HPLM + 10% dialyzed FBS, 0.00702 µM	114	124	–
HPLM + 10% dialyzed FBS, 0.0211 µM	116	119	–
HPLM + 10% dialyzed FBS, 0.0632 µM	127	122	–
HPLM + 10% dialyzed FBS, 0.19 µM	115	125	–
HPLM + 10% dialyzed FBS, 0.569 µM	123	129	–
HPLM + 10% dialyzed FBS, 1.71 µM	96.1	122	–
HPLM + 10% dialyzed FBS, 5.12 µM	20.9	17.2	–
HPLM + 10% dialyzed FBS, 15.4 µM	25.5	14.8	–
HPLM + 10% dialyzed FBS, 46.1 µM	21.6	10.8	–
RPMI 5 mM glucose + 10% FBS, 0.000781 µM	76.2	125	117
RPMI 5 mM glucose + 10% FBS, 0.00234 µM	82.1	121	107
RPMI 5 mM glucose + 10% FBS, 0.00702 µM	65.8	116	116
RPMI 5 mM glucose + 10% FBS, 0.0211 µM	86.4	126	115
RPMI 5 mM glucose + 10% FBS, 0.0632 µM	77.6	120	121
RPMI 5 mM glucose + 10% FBS, 0.19 µM	82.6	119	101
RPMI 5 mM glucose + 10% FBS, 0.569 µM	77.1	118	129
RPMI 5 mM glucose + 10% FBS, 1.71 µM	79.1	122	97.6
RPMI 5 mM glucose + 10% FBS, 5.12 µM	36.2	22.3	28.6
RPMI 5 mM glucose + 10% FBS, 15.4 µM	17.5	17.7	23.2
RPMI 5 mM glucose + 10% FBS, 46.1 µM	13.5	17.3	29.4
RPMI 5 mM glucose + 10% dialyzed FBS, 0.000781 µM	114	117	119
RPMI 5 mM glucose + 10% dialyzed FBS, 0.00234 µM	109	128	113
RPMI 5 mM glucose + 10% dialyzed FBS, 0.00702 µM	109	118	110
RPMI 5 mM glucose + 10% dialyzed FBS, 0.0211 µM	105	114	111
RPMI 5 mM glucose + 10% dialyzed FBS, 0.0632 µM	102	121	114
RPMI 5 mM glucose + 10% dialyzed FBS, 0.19 µM	124	113	110
RPMI 5 mM glucose + 10% dialyzed FBS, 0.569 µM	113	108	116
RPMI 5 mM glucose + 10% dialyzed FBS, 1.71 µM	96.5	113	114
RPMI 5 mM glucose + 10% dialyzed FBS, 5.12 µM	47.5	39	71.5
RPMI 5 mM glucose + 10% dialyzed FBS, 15.4 µM	23.4	28	36
RPMI 5 mM glucose + 10% dialyzed FBS, 46.1 µM	20.2	24	33.5

AUC of viability dose-response curve
Conditions	HPLM + 10% dialyzed FBS	RPMI 5 mM glucose + 10% FBS	RPMI 5 mM glucose + 10% dialyzed FBS
[4]	372	377	388
[5]	387	379	410
